Results reported in patent US6737383B1, “Herbicidal oxadiazolidines” (priority 1999, dated 2004).

How the values were obtained:
bedstraw = assay: Test B pre/postemergence bedstraw; type: in vivo, Galium aparine
In short: (§1)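 Response is a visual 0-to-10 score relative to untreated plants, where 0 means no effect and 10 means complete control, taken twelve to sixteen days after application. Treatments went onto soil at planting and onto foliage of 1- to 4-leaf plants, using a surfactant-containing non-phytotoxic solvent.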

blackgrass = assay: Test B pre/postemergence blackgrass; type: in vivo, Alopecurus myosuroides
In short: as §1

surinam grass = assay: Test B pre/postemergence surinam grass; type: in vivo, Brachiaria decumbens
In short: as §1

corn = assay: Test B pre/postemergence corn; type: in vivo, Zea mays
In short: as §1

giant foxtail = assay: Test B pre/postemergence giant foxtail; type: in vivo, Setaria faberii
In short: as §1

morningglory = assay: Test B pre/postemergence morningglory; type: in vivo, Ipomoea hederacea
In short: as §1

pigweed = assay: Test B pre/postemergence pigweed; type: in vivo, Amaranthus retroflexus
In short: as §1

rape = assay: Test B pre/postemergence rape; type: in vivo, Brassica napus
In short: as §1

soybean = assay: Test B pre/postemergence soybean; type: in vivo, Glycine max
In short: as §1

sugar beet = assay: Test B pre/postemergence sugar beet; type: in vivo, Beta vulgaris
In short: as §1

velvetleaf = assay: Test B pre/postemergence velvetleaf; type: in vivo, Abutilon theophrasti
In short: as §1

purple nutsedge = assay: Test B pre/postemergence purple nutsedge; type: in vivo, Cyperus rotundus
In short: as §1

rice = assay: Test B flood test rice; type: in vivo, Oryza sativa
In short: (§2)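 Plants were grown to the 2-leaf stage before treatment with test chemical, then held in a greenhouse for twelve to sixteen days. Injury was visually rated against untreated controls on a 0–10 scale, where 0 is no effect and 10 is complete control.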

smallflower flatsedge = assay: Test B flood test smallflower flatsedge; type: in vivo, Cyperus difformis
In short: as §2

duck salad = assay: Test B flood test duck salad; type: in vivo, Heteranthera limosa
In short: as §2

bamyardgrass = assay: Test B flood test barnyardgrass; type: in vivo, Echinochloa crus-galli
In short: as §2

[1] = Postemergence, Rate 62 g/ha, scale 0 to 10, 0 is no effect, 10 is complete control
[2] = Postemergence, Rate 250 g/ha, scale of 0 to 10, 0 is no effect, 10 is complete control
[3] = Preemergence, Rate 250 g/ha, scale 0 to 10 (0 no effect, 10 complete control)
[4] = Preemergence, Rate 500 g/ha, scale of 0 to 10 where 0 is no effect and 10 is complete control
[5] = Postemergence, Rate 125 g/ha, scale of 0 to 10 where 0 is no effect and 10 is complete control
[6] = Postemergence, Rate 500 g/ha, scale of 0 to 10 where 0 is no effect and 10 is complete control
[7] = Preemergence, Rate 62 g/ha, scale 0 to 10 (0 no effect, 10 complete control)
[8] = Preemergence, Rate 125 g/ha, scale of 0 to 10 where 0 is no effect and 10 is complete control
[9] = Rate 62 g/ha, flood test species, Pre-emergence, visual evaluation after twelve to sixteen days
[10] = Rate 125 g/ha, under heading Pre-emergence, flood test species, visual evaluation after twelve to sixteen days
[11] = Rate 250 g/ha, Pre-emergence (flood test species), scale 0 to 10, 0 is no effect, 10 is complete control
[12] = Rate 500 g/ha, Pre-emergence section of Table B, 0 to 10 scale (0 no effect, 10 complete control)

Q: CC(C)N(C(=O)n1oc(=O)n(CNC(=O)c2ccccc2)c1=O)c1ccc(F)cc1F [Compound 619] was tested. Which “Plant response rating, Bedstraw” value (bedstraw; [1]) did it give?
A: 0

Q: What about the “Bedstraw plant response rating” value (bedstraw; [2]) of the same compound?
A: 0

Q: What about the “Plant response rating, Bedstraw” value (bedstraw; [3]) of the same compound?
A: 0

Q: What about the “Bedstraw plant response rating” value (bedstraw; [4]) of the same compound?
A: 0

Q: What about the “Plant response rating, Blackgrass” value (blackgrass; [1]) of the same compound?
A: 0

Q: And the “Plant response rating, Blackgrass” value (blackgrass; [5])?
A: 0

Q: And the “Blackgrass plant response rating” value (blackgrass; [2])?
A: 0

Q: What about the “Plant response rating, Blackgrass” value (blackgrass; [6]) of the same compound?
A: 0

Q: And the “Blackgrass plant response rating” value (blackgrass; [7])?
A: 0

Q: And the “Blackgrass plant response rating” value (blackgrass; [8])?
A: 0

Q: What about the “Plant response rating, Blackgrass” value (blackgrass; [3]) of the same compound?
A: 0

Q: And the “Blackgrass plant response rating” value (blackgrass; [4])?
A: 0

Q: What about the “Plant response rating, B. signalgrass” value (surinam grass; [1]) of the same compound?
A: 0

Q: And the “Plant response rating, B. signalgrass” value (surinam grass; [5])?
A: 0

Q: And the “B. signalgrass plant response rating” value (surinam grass; [2])?
A: 0

Q: What about the “Plant response rating, B. signalgrass” value (surinam grass; [6]) of the same compound?
A: 2

Q: What about the “B. signalgrass plant response rating” value (surinam grass; [7]) of the same compound?
A: 0

Q: What about the “B. signalgrass plant response rating” value (surinam grass; [8]) of the same compound?
A: 0

Q: And the “Plant response rating, B. signalgrass” value (surinam grass; [3])?
A: 0

Q: What about the “B. signalgrass plant response rating” value (surinam grass; [4]) of the same compound?
A: 3

Q: And the “Plant response rating, Corn” value (corn; [1])?
A: 0

Q: And the “Plant response rating, Corn” value (corn; [5])?
A: 0

Q: What about the “Corn plant response rating” value (corn; [2]) of the same compound?
A: 0

Q: What about the “Plant response rating, Corn” value (corn; [6]) of the same compound?
A: 0

Q: And the “Corn plant response rating” value (corn; [7])?
A: 0

Q: And the “Corn plant response rating” value (corn; [8])?
A: 0

Q: And the “Plant response rating, Corn” value (corn; [3])?
A: 0

Q: What about the “Plant response rating, Corn” value (corn; [4]) of the same compound?
A: 2

Q: What about the “Plant response rating, Giant foxtail” value (giant foxtail; [1]) of the same compound?
A: 0

Q: What about the “Plant response rating, Giant foxtail” value (giant foxtail; [5]) of the same compound?
A: 0

Q: What about the “Giant foxtail plant response rating” value (giant foxtail; [2]) of the same compound?
A: 0

Q: And the “Plant response rating, Giant foxtail” value (giant foxtail; [6])?
A: 3

Q: What about the “Giant foxtail plant response rating” value (giant foxtail; [7]) of the same compound?
A: 0

Q: What about the “Giant foxtail plant response rating” value (giant foxtail; [8]) of the same compound?
A: 3

Q: What about the “Plant response rating, Giant foxtail” value (giant foxtail; [3]) of the same compound?
A: 7

Q: And the “Plant response rating, Giant foxtail” value (giant foxtail; [4])?
A: 8

Q: And the “Plant response rating, Morningglory” value (morningglory; [1])?
A: 0

Q: What about the “Plant response rating, Morningglory” value (morningglory; [5]) of the same compound?
A: 1

Q: What about the “Morningglory plant response rating” value (morningglory; [2]) of the same compound?
A: 1

Q: And the “Plant response rating, Morningglory” value (morningglory; [6])?
A: 1

Q: And the “Morningglory plant response rating” value (morningglory; [7])?
A: 0

Q: What about the “Morningglory plant response rating” value (morningglory; [8]) of the same compound?
A: 0

Q: And the “Plant response rating, Morningglory” value (morningglory; [3])?
A: 0

Q: And the “Plant response rating, Morningglory” value (morningglory; [4])?
A: 0

Q: What about the “Plant response rating, Redroot pigweed” value (pigweed; [1]) of the same compound?
A: 0

Q: And the “Plant response rating, Redroot pigweed” value (pigweed; [5])?
A: 0

Q: And the “Redroot pigweed plant response rating” value (pigweed; [2])?
A: 1

Q: And the “Redroot pigweed plant response rating” value (pigweed; [7])?
A: 0

Q: And the “Redroot pigweed plant response rating” value (pigweed; [8])?
A: 0

Q: And the “Plant response rating, Redroot pigweed” value (pigweed; [3])?
A: 0

Q: And the “Plant response rating, Redroot pigweed” value (pigweed; [4])?
A: 0

Q: What about the “Plant response rating, Rape” value (rape; [1]) of the same compound?
A: 0

Q: What about the “Plant response rating, Rape” value (rape; [5]) of the same compound?
A: 0

Q: And the “Rape plant response rating” value (rape; [2])?
A: 0

Q: What about the “Plant response rating, Rape” value (rape; [6]) of the same compound?
A: 3

Q: What about the “Rape plant response rating” value (rape; [7]) of the same compound?
A: 0

Q: And the “Rape plant response rating” value (rape; [8])?
A: 0

Q: What about the “Plant response rating, Rape” value (rape; [3]) of the same compound?
A: 0

Q: And the “Plant response rating, Rape” value (rape; [4])?
A: 0

Q: And the “Plant response rating, Soybean” value (soybean; [1])?
A: 1

Q: What about the “Plant response rating, Soybean” value (soybean; [5]) of the same compound?
A: 1

Q: What about the “Soybean plant response rating” value (soybean; [2]) of the same compound?
A: 1

Q: And the “Soybean plant response rating” value (soybean; [7])?
A: 0

Q: What about the “Soybean plant response rating” value (soybean; [8]) of the same compound?
A: 0

Q: What about the “Plant response rating, Soybean” value (soybean; [3]) of the same compound?
A: 0

Q: What about the “Plant response rating, Soybean” value (soybean; [4]) of the same compound?
A: 0

Q: What about the “Plant response rating, Sugarbeets” value (sugar beet; [1]) of the same compound?
A: 0

Q: What about the “Plant response rating, Sugarbeets” value (sugar beet; [5]) of the same compound?
A: 0

Q: What about the “Sugarbeets plant response rating” value (sugar beet; [2]) of the same compound?
A: 0

Q: And the “Sugarbeets plant response rating” value (sugar beet; [7])?
A: 0

Q: And the “Sugarbeets plant response rating” value (sugar beet; [8])?
A: 0

Q: And the “Plant response rating, Sugarbeets” value (sugar beet; [3])?
A: 0

Q: And the “Plant response rating, Sugarbeets” value (sugar beet; [4])?
A: 0

Q: And the “Plant response rating, Velvetleaf” value (velvetleaf; [1])?
A: 0

Q: What about the “Plant response rating, Velvetleaf” value (velvetleaf; [5]) of the same compound?
A: 0

Q: What about the “Velvetleaf plant response rating” value (velvetleaf; [2]) of the same compound?
A: 2

Q: And the “Velvetleaf plant response rating” value (velvetleaf; [7])?
A: 0

Q: And the “Velvetleaf plant response rating” value (velvetleaf; [8])?
A: 0

Q: And the “Plant response rating, Velvetleaf” value (velvetleaf; [3])?
A: 0

Q: What about the “Plant response rating, Velvetleaf” value (velvetleaf; [4]) of the same compound?
A: 4

Q: And the “Plant response rating, Nutsedge” value (purple nutsedge; [1])?
A: 0

Q: What about the “Plant response rating, Nutsedge” value (purple nutsedge; [5]) of the same compound?
A: 0

Q: And the “Nutsedge plant response rating” value (purple nutsedge; [2])?
A: 0

Q: What about the “Plant response rating, Nutsedge” value (purple nutsedge; [6]) of the same compound?
A: 0

Q: And the “Nutsedge plant response rating” value (purple nutsedge; [7])?
A: 0

Q: What about the “Nutsedge plant response rating” value (purple nutsedge; [8]) of the same compound?
A: 0

Q: And the “Plant response rating, Nutsedge” value (purple nutsedge; [3])?
A: 0

Q: What about the “Plant response rating, Rice (0 to 10 scale, 0 is no effect, 10 is complete control)” value (rice; [9]) of the same compound?
A: 0

Q: And the “Rice plant response rating (0 to 10 scale, 0 is no effect, 10 is complete control)” value (rice; [10])?
A: 0

Q: And the “Rice plant response rating” value (rice; [11])?
A: 0

Q: And the “Rice plant response rating” value (rice; [12])?
A: 0

Q: What about the “Plant response rating, S. Flatsedge (0 to 10 scale, 0 is no effect, 10 is complete control)” value (smallflower flatsedge; [9]) of the same compound?
A: 0

Q: What about the “S. Flatsedge plant response rating (0 to 10 scale, 0 is no effect, 10 is complete control)” value (smallflower flatsedge; [10]) of the same compound?
A: 0

Q: What about the “S. Flatsedge plant response rating” value (smallflower flatsedge; [11]) of the same compound?
A: 0

Q: And the “S. Flatsedge plant response rating” value (smallflower flatsedge; [12])?
A: 0

Q: What about the “Plant response rating, Ducksalad (0 to 10 scale, 0 is no effect, 10 is complete control)” value (duck salad; [9]) of the same compound?
A: 0

Q: What about the “Ducksalad plant response rating (0 to 10 scale, 0 is no effect, 10 is complete control)” value (duck salad; [10]) of the same compound?
A: 0

Q: What about the “Ducksalad plant response rating” value (duck salad; [11]) of the same compound?
A: 0

Q: What about the “Ducksalad plant response rating” value (duck salad; [12]) of the same compound?
A: 0

Q: And the “Plant response rating, Barnyardgrass (0 to 10 scale, 0 is no effect, 10 is complete control)” value (bamyardgrass; [9])?
A: 0

Q: What about the “Barnyardgrass plant response rating (0 to 10 scale, 0 is no effect, 10 is complete control)” value (bamyardgrass; [10]) of the same compound?
A: 0

Q: What about the “Barnyardgrass plant response rating” value (bamyardgrass; [11]) of the same compound?
A: 0

Q: What about the “Barnyardgrass plant response rating” value (bamyardgrass; [12]) of the same compound?
A: 0
